# According to patent US9670230B2, “Heteroaryl compounds and methods of use thereof” (SUNOVION PHARMACEUTICALS INC., priority 2012, dated 2017):
# Target: recombinant human PDE-10 enzyme (Homo sapiens (Human), UniProt Q9Y233)
# Experiment: Molecular Devices IMAP PDE Fluorescence Polarization assay, human PDE-10 inhibition (enzyme assay IC50)
# Type: biochemical
# Conditions: recombinant human PDE-10 expressed in baculoviral system; Fluorescein-labeled cAMP/cGMP substrate; 40-minute incubation at 37° C.
# Description: In one embodiment, the compounds provided herein were assayed for their ability to inhibit human PDE-10A. In one embodiment, the activities of the compounds were determined using the Molecular Devices IMAP PDE Fluorescence Polarization assay using recombinant human PDE-10 enzyme expressed in a baculoviral system. Briefly, 10 μL of a compound (0.2 nM-20 μM) was added to either a 96-well half area black plate or a 384-well black plate along with 10 μL of Fluorescein-labeled cAMP/cGMP substrate as per manufacturer's instructions and 10 μL of PDE enzyme (activity 0.1 U). Following a 40-minute incubation at 37° C., 60 μL of IMAP binding reagent was added. The plate was then read on a Perkin Elmer Victor (480-535 nm). The data was analyzed using Prism Software (GraphPad Inc, San Diego, Calif.).
# recombinant human PDE-10 enzyme, sequence (Q9Y233 whole entry): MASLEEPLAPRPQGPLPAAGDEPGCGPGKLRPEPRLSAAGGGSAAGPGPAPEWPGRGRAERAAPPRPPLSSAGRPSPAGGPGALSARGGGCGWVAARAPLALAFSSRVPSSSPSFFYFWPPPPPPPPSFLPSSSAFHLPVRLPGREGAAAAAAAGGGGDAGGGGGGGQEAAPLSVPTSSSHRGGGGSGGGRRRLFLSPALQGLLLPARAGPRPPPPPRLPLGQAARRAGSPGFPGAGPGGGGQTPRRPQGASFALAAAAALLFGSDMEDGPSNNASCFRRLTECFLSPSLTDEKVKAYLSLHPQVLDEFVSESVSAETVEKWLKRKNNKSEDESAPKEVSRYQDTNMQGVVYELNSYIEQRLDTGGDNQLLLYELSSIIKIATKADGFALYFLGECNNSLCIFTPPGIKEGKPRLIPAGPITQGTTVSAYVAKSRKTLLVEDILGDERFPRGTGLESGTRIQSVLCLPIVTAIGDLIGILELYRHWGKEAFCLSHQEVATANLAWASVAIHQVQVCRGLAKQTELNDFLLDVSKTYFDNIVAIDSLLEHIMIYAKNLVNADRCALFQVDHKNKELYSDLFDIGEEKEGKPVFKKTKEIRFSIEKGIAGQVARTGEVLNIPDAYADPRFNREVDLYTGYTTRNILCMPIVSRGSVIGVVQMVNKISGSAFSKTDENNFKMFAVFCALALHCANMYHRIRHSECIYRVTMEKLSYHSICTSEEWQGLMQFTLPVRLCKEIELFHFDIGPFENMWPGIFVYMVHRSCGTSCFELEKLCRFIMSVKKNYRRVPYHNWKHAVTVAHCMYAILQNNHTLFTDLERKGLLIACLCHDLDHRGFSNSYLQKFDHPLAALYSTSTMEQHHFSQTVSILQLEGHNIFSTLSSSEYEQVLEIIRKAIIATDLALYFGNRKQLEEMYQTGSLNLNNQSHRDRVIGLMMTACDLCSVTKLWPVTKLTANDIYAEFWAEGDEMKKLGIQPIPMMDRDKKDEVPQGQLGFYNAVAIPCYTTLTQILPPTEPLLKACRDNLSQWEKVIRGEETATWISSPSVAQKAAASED
row,Compound,IC50 [nM]
1,"Cc1ccc2ccc(CCc3nc4c(C)ncc(C)n4n3)nc2c1 [Compound 1, 2-(2-(5,8-dimethyl-[1,2,4]triazolo[1,5-a]pyrazin-2-yl)ethyl)-7-methylquinoline]",≤ 10
2,"Cc1ncc(C)n2nc(CCc3ccc4c(n3)NC(C)CC4)nc12 (stereo not drawn) [Compound 3, 7-(2-(5,8-dimethyl-[1,2,4]triazolo[1,5-a]pyrazin-2-yl)ethyl)-2-methyl-1,2,3,4-tetrahydro-1,8-naphthyridine]",10 to 100
3,"Cc1ncc(C)n2nc(CCc3ccc4c(n3)N[C@H](C)CC4)nc12 [Compound 4, (R)-7-(2-(5,8-dimethyl-[1,2,4]triazolo[1,5-a]pyrazin-2-yl)ethyl)-2-methyl-1,2,3,4-tetrahydro-1,8-naphthyridine]",10 to 100
4,"Cc1ncc(C)n2nc(CCc3ccc4c(n3)NC(C)CO4)nc12 (stereo not drawn) [Compound 6, 6-(2-(5,8-dimethyl-[1,2,4]triazolo[1,5-a]pyrazin-2-yl)ethyl)-3-methyl-3,4-dihydro-2H-pyrido[3,2-b][1,4]oxazine]",10 to 100
5,"Cc1ncc(C)n2nc(CCc3ccc4c(n3)N[C@@H](C)CO4)nc12 [Compound 8, (S)-6-(2-(5,8-dimethyl-[1,2,4]triazolo[1,5-a]pyrazin-2-yl)ethyl)-3-methyl-3,4-dihydro-2H-pyrido[3,2-b][1,4]oxazine]",100 to 500
6,"Cc1ncc(C)n2nc(CCc3ccc4c(n3)N(C)C(C)CO4)nc12 (stereo not drawn) [Compound 10, 6-(2-(5,8-dimethyl-[1,2,4]triazolo[1,5-a]pyrazin-2-yl)ethyl)-3,4-dimethyl-3,4-dihydro-2H-pyrido[3,2-b][1,4]oxazine]",100 to 500
7,"Cc1ncc(C)n2nc(CCc3ccc4c(n3)NC(C)(C)CO4)nc12 [Compound 12, 6-(2-(5,8-dimethyl-[1,2,4]triazolo[1,5-a]pyrazin-2-yl)ethyl)-3,3-dimethyl-3,4-dihydro-2H-pyrido[3,2-b][1,4]oxazine]",100 to 500

# Now from value to molecule:
row,IC50 [nM],Compound
1,≤ 10,"COc1ccc2ccc(CCc3nc4c(C)ncc(C)n4n3)nc2c1 [Compound 2, 2-(2-(5,8-dimethyl-[1,2,4]triazolo[1,5-a]pyrazin-2-yl)ethyl)-7-methoxyquinoline]"
2,10 to 100,"Cc1ncc(C)n2nc(CCc3ccc4c(n3)N[C@@H](C)CC4)nc12 [Compound 5, (S)-7-(2-(5,8-dimethyl-[1,2,4]triazolo[1,5-a]pyrazin-2-yl)ethyl)-2-methyl-1,2,3,4-tetrahydro-1,8-naphthyridine]"
3,10 to 100,"Cc1ncc(C)n2nc(CCc3ccc4c(n3)N[C@H](C)CO4)nc12 [Compound 7, (R)-6-(2-(5,8-dimethyl-[1,2,4]triazolo[1,5-a]pyrazin-2-yl)ethyl)-3-methyl-3,4-dihydro-2H-pyrido[3,2-b][1,4]oxazine]"
4,10 to 100,"CCC1COc2ccc(CCc3nc4c(C)ncc(C)n4n3)nc2N1 (stereo not drawn) [Compound 9, 6-(2-(5,8-dimethyl-[1,2,4]triazolo[1,5-a]pyrazin-2-yl)ethyl)-3-ethyl-3,4-dihydro-2H-pyrido[3,2-b][1,4]oxazine]"
5,> 500,"CCC1COc2ccc(CCc3nc4c(C)ncc(C)n4n3)nc2N1C (stereo not drawn) [Compound 11, 6-(2-(5,8-dimethyl-[1,2,4]triazolo[1,5-a]pyrazin-2-yl)ethyl)-3-ethyl-4-methyl-3,4-dihydro-2H-pyrido[3,2-b][1,4]oxazine]"
